This is an account of results in patent US8431715B2, “Thiazole compound (as PPARδ) ligand and pharmaceutical, cosmetic and health food comprised thereof” (Seoul National University Industry Foundation, priority 2007, dated 2013).

For data set [1], the system named is mice. The data set is described as follows: Morris water maze test, treatment in pregnancy and lactation. In kind it is in vivo. The conditions noted are these: 10 mg/kg oral to pregnant mice, control 24.2 sec. Here is the method:
An animal test was performed to investigate the therapeutic effect of the compound of the present invention on dementia and Parkinson's disease based on the memory improving effect thereof. To confirm the effect of the compound of the present invention in the period of brain development, the compound was orally administered to pregnant mice at the concentration of 10 mg/kg in the periods of pregnancy and lactation. Morris water maze test was performed to detect any changes of the brain functions of the treatment group and the control group.

In the next data set the target is T1, PPARγ (Homo sapiens, UniProt P37231).
T1 construct: Full length PPARs plasmid DNA, reporter DNA confirming PPARs activity owing to its luciferase activity; expressed in transfected cells; host or cells: CV-1 cells
T1 sequence (P37231 1-505): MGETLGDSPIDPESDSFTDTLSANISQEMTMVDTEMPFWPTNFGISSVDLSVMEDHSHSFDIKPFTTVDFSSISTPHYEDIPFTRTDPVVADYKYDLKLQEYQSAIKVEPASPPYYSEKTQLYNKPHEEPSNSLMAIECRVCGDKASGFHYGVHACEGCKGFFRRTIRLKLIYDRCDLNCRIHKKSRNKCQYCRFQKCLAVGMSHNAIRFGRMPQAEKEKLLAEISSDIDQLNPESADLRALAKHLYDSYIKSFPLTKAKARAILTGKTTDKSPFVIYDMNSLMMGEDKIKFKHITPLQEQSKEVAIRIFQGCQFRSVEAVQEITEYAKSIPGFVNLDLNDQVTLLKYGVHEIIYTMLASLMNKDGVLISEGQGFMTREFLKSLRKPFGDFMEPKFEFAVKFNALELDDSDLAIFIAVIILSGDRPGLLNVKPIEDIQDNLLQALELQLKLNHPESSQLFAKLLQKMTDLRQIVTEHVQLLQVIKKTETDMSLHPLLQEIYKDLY
The data set is described as follows: Transfection assay (luciferase reporter) in CV-1 cells, PPARγ. It is filed as cell-based. The conditions noted are these: 24 hours treatment. As for the experimental part:
The PPARδ activities of the R-form compound represented by formula 1 of the present invention and the S-form compound represented by formula 2 were measured by transfection assay. In addition, the selectivity to PPAR subtypes, PPARα and PPARγ, was examined. Cytotoxicity was tested by MTT assay and in vivo activity and toxicity was investigated by animal experiment using mice.
CV-1 cells were used in this assay. The cells were inoculated in a 96-well plate containing DMEM supplemented with 10% FBS, DBS (delipidated) and 1% penicillin/streptomycin and cultured in a 37 °C, 5% CO2 incubator. The experiment was performed according to the steps of inoculation, transfection, sample treatment and confirmation. Particularly, CV-1 cells were inoculated in a 96 well-plate (5000 cells/well), followed by transfection 24 hours later. Full length PPARs plasmid DNA, reporter DNA confirming PPARs activity owing to its luciferase activity, β-galactosidase DNA providing information on transfection efficiency, and transfection reagent were used for the transfection. The compounds of formula 1 and formula 2 were dissolved in dimethylsulfoxide (DMSO), which were treated to the cells via media at different concentrations. […] Luciferase activity and β-galactosidaseactivity were measured with Luminometer and a microplate reader. […] A graph was made with those values and EC50 was calculated.
On the technique in general: In a reporter assay the amount or activity of a reporter protein is the signal.

The next data set concerns ICR mice. The data set is described as follows: Acute toxicity test. It is filed as in vivo. The conditions noted are these: oral, up to 2000 mg/kg, 14 days. Here is the method: (§1) Acute toxicity and reproductive toxicity tests were performed using mice to evaluate the toxicity of the compound of the present invention. The compound of formula 1 was orally administered to ICR mice at 6 weeks at the dosage of 50 mg/kg, 300 mg/kg and 2000 mg/kg, followed by observation on toxicity for 14 days. […] The result of reproductive toxicity test using C57BL/6 mice was also consistent with the above, which is no toxicity caused by the compound of formula 1 was observed. After oral-administration of the compound to the pregnant female mice, weight gain and growth speed of fetus were investigated.

For data set [2], the system named is mice. As to the kind of experiment: Muscle endurance test, treatment during pregnancy and/or lactation, treadmill. It is filed as in vivo. Here is the method:
An animal test was performed to confirm muscle endurance strengthening and muscle function enhancing effect of the compound of the present invention. Most muscles are generated in the developmental stage. Thus, the compound of formula 1 (10 mg/Kg/day) were orally administered to pregnant mice in the period of either pregnancy or lactation or both pregnancy and lactation. […] Muscles were observed after removing skin. As a result, muscles of the treatment group were red, unlike the controlled one. ATPase staining and immunostaining were performed. As a result, type I muscle fiber was increased in the group treated with the compound of formula 1. The effect of the changes of the muscle fiber on the enhancement of muscle endurance and muscle function was investigated by using treadmill test. As a result, running time was much extended in the group treated with the compound of formula 1.

Data set [3] relates to C57BL/6 mice. As to the kind of experiment: Muscle endurance test in adults with exercise, treadmill. In kind it is in vivo. The conditions noted are these: 10 mg/kg oral, mice at 10 weeks, treadmill exercise 30 days. As for the experimental part:
Particularly, the compound of formula 1 was orally administered to C57BL/6 mice at 10 weeks at the concentration of 10 mg/kg, during which the mice were forced to exercise. The exercise was performed with treadmill for […] once a day for 30 days, precisely at the speed of 2 meter/min for the first 5 minutes, at 5 meter/min for 5 minutes, at 8 meter/min for 5 minutes and at 20 meter/min for the last 5 minutes. At the finish, muscle endurance and muscle function enhancing effect was tested by using treadmill. As a result, the time (1.5 fold) and distance (1.6 fold) of exercise were all increased in the group treated with the compound of the present invention, when compared with the control.

In data set [4] the test system is C57BL/6 mice. As to the kind of experiment: Reproductive toxicity test. In kind it is in vivo. As for the experimental part:
as §1

Data set [5] relates to C57BL/6 mice. As to the kind of experiment: Hyperlipidemia improving effect, blood HDL level. In kind it is in vivo. The conditions noted are these: 10 mg/kg/day oral, high fat feeds, 6 weeks, serum. As for the experimental part:
In vivo animal test using C57BL/6 (SLC Co.) mice at 6 weeks was performed to confirm the hyperlipidemia improving effect of the compound of the present invention. […] 6 weeks later, blood was taken from orbital veins. Serum was separated and blood HDL level was measured by biochemical method.

Where [6] appears, read: 10 mg/Kg/day oral to pregnant mice.
Setting [7] is: 10 mg/Kg/day oral to pregnant mice, pregnancy.
The mark [8] stands for this setting: 10 mg/Kg/day oral, Pregnancy + lactation.

Take `Cc1cc(S[C@H](Cc2ccccc2)c2sc(-c3ccc(C(F)(F)F)cc3)nc2C)ccc1OCC(=O)O` (racemic) [formula 1]: the “average time spent to find the platform” value in the data set with mice [1] was determined as 6.8 s. Besides, the “EC50 PPARγ” value on PPARγ is on record as “ia”. Also, the “changes on weight and feed taking” value in the data set with ICR mice is “no significant changes”. In the data set with mice [2] (setting [6]), the “muscle colour after removing skin” value was “red”; the “weight gain and growth rate of fetuses versus control” value is “not much different”. Besides, in the data set on mice [2] (setting [7]), the “Increasing rate (treatment group/control group), length” value worked out at 2.4 times and the “Increasing rate (treatment group/control group), time” value is on record as 2.3 times. Further, in the data set with mice [2] (setting [8]), the “Increasing rate (treatment group/control group), length” value was found to be 3.0 times and the “Increasing rate (treatment group/control group), time” value amounted to 2.9 times. In the data set on mice [2] (10 mg/Kg/day oral, lactation), the “Increasing rate (treatment group/control group), length” value is on record as 2.2 times and the “Increasing rate (treatment group/control group), time” value is recorded as 2.1 times. In the data set with mice [2] (ATPase staining and immunostaining), the “type I muscle fiber” value was “increased”. Also, in the data set with mice [2] (treadmill test), the running time entry was “much extended”. In the data set on C57BL/6 mice [3], the “distance of exercise compared with the control” value is on record as 1.6 fold and the “time of exercise compared with the control” value is reported as 1.5 fold. Besides, in the data set on C57BL/6 mice [4] (mouse, in vivo, po), the “bone development and disease related matters” value is recorded as “no changes”; the “weight gain and growth speed of fetus” value is “no significant difference”. For the same compound, the reproductive toxicity result in the data set with C57BL/6 mice [4] (oral, pregnant female mice) was “no toxicity”. The “HDL level increase compared with the control” value with C57BL/6 mice [5] is 44.6%.
